Columns and labels:
[1] = system: BT20 (Breast Cancer); experiment: Methylcellulose clonogenic assay; assay type: cell-based
Experimental: (§1) The antileukemic activity of compound 6 against clonogenic tumor cells was examined using a methylcellulose colony assay system (Uckun, F. M., et al., J. Exp. Med. 163: 347-368, 1986; Messinger, Y., et al., Clin Cancer Res. 4: 165-70, 1998). In brief, cells (10^5/ml in RPMI-10% FBS) were treated overnight at 37° C. with compound 6 at varying concentrations. After treatment, cells were washed twice, plated at 10^4 or 10^5 cells/ml in RPMI-10% FMS-0.9% methylcellulose in Petri dishes, and cultured for 7 days at 37° C. in a humidified 5% CO2 incubator. Subsequently, leukemic cell (or tumor cell) colonies were enumerated using an inverted phase-contrast microscope. The percent inhibition of colony formation was calculated using the following formula:
(§2) % Inhibition=1−mean number of colonies in test culture×100 mean number of colonies in control culture

[2] = system: DAUDI (B-ALL); experiment: Methylcellulose clonogenic assay; assay type: cell-based
Experimental: as §1, §2

[3] = system: HL-60 (AML); experiment: Methylcellulose clonogenic assay; assay type: cell-based; settings: HL-60, 100 μM
Experimental: as §1, §2

[4] = system: SQ20B (Squamous Carcinoma); experiment: Methylcellulose clonogenic assay; assay type: cell-based
Experimental: as §1, §2

[5] = system: skh-1 mice; experiment: Chronic UVB-induced skin tumorigenesis; assay type: in vivo, mouse
Experimental: Female, 6-7 weeks old, hairless albino mice (skh-1) were purchased from Charles River Laboratories (Wilmington, Mass.) and were housed in a controlled environment (12-h light/12-h dark photo period, 22±1° C., 60±10% relative humidity), which is fully accredited by the USDA (United States Department of Agriculture). Animals were caged in groups of five in a pathogen free environment in accordance with the rules and regulations of U.S. Animal Welfare Act, and National Institutes of Health (NIH). All mice were housed in microisolator cages (Lab Products, Inc., N.J.) containing autoclaved bedding. The mice were allowed free access to autoclaved pellet food and tap water throughout the experiments. Animal care and the experimental procedures were carried out in agreement with institutional guidelines.
Ultraviolet lamps (8-FSX24T12/HO/UVB) that emit light predominantly in the UVB range (280-320 nm) were obtained from National Biological Corporation, Twinsburg, Ohio. The irradiance of the UVB lamps was determined before each irradiation, using a UVB meter (model—500C obtained from National Biological Corporation, Twinsburg, Ohio). For exposure to UV light, three mice were placed in an open 28 cm×10 cm plastic box that was divided in three compartments (one mouse per compartment). The plastic box was placed in the center, under the bank of UVB light, and the mice were irradiated with 35 mj/cm^2 dose of UVB. The exposure time for a 35 mj/cm ^2 dose of UVB varied from 30-34 s. The distance between UVB lamps and the surface receiving irradiation was 20 cm.
The mice were treated topically with a single application of Compound 6 (1.0 mg/cm^2, dissolved in DMSO) over a 2 cm^2 area on the dorsal surface before each UVB exposure. After 15 min. following Compound 6 application the mice were irradiated with UVB (35 mj/cm). UVB exposure of mice was performed three times a week for a total of 20 weeks. Control mice were treated with vehicle prior to UVB light exposure.
The skin thickness of mice, and papillary skin lesions greater than 1 mm in diameter were measured and recorded twice every week and the average of the two measurements was used in the calculations. Skin thickness, lesion number and lesion diameter measurements were limited only to the 2 cm^2 area on the dorsal surface of mice that was being treated either with compound 6 or vehicle. Lesion volume were calculated using the formula: […]
At the end of the study, 5-19 lesions from each group were randomly biopsied, and fixed in 10% buffered formalin. Formalin-fixed specimens were embedded in paraffin blocks, sectioned at 4 μm thickness, and stained in haematoxylin-eosin. The pathological evaluation of skin sections was performed by a Certified Veterinary Pathologist who was unaware of the identity of specimens.
The pathological classification of tumors was as follows: 1) Cutaneous papilloma: a tumor papillomatous growth of acanthotic epidermis without invasive growth of tumor cells into the dermis. […] 2) Actinic keratosis: a hyperplastic, orthokeratotic, mildly to moderately acanthotic epithelium. 3) Florid actinic keratosis: actinic keratosis with mild to moderately acanthotic ridges extending into the superficial dermis, resembling superficially invasive squamous cell carcinoma. 4) Keratoacanthoma: a papillary growth with a central keratin filled crater surrounded by hyperplastic, acanthotic stratified squamous epithelium. The leading edge of the tumor pushes into the underlying dermis. 5) Squamous cell carcinoma (SCC): a tumor with atypical cell nests invading into superficial and mid dermis.

[6] = system: C57BL/6 recipients; experiment: Syngeneic islet graft function under long-term treatment; assay type: in vivo, mouse; settings: 50 mg/kg
Experimental: Mice were fasted for 10 hours, and the glucose solution (1.5 g/kg body weight) was injected i.p. Before and after injection of glucose, blood samples were taken and blood glucose levels were measured (as described above) at 0, 30, 60 and 120 min time points.
The vehicle control—(n=3) and WHI-P131-treated C57BL/6 recipients (n=5) of islet allograft were sacrificed on day 14 post transplantation; Jak3 recipients (n=6) were sacrificed on day 100 post transplantation; the C57BL/6 recipients of syngeneic islets—vehicle control—(n=4) and WHI-P131-treated (n=5) were sacrificed on day 180 post transplantation. Kidneys bearing grafts were removed, fixed in 10% formalin and embedded in paraffin. Serial sections of graft area were cut and stained with hematoxylin and eosin. For insulin staining, sections were stained by immunoperoxidase method using 1:100 dilution of polyclonal guinea pig anti-insulin antibody (Gpx Insulin, Dako, Carpinteria, Calif.) and 1:100 dilution of secondary antibody conjugated to horse radish peroxidase (Guinea Pig Immunoglobulins HRP, Dako, Carpinteria, Calif.). Sections were briefly counterstained with hematoxylin and mounted for light microscopic examination.

[7] = group C, 1 mg/cm^2 topical, 20 weeks
[8] = group C, 1 mg/cm^2 topical, 20 weeks, mean ± SEM

SMILES: COc1cc2ncnc(Nc3ccc(O)cc3)c2cc1OC [WHI-P131, 4-(4′-hydroxyl-phenyl)-amino-6,7-dimethoxyquinazoline]
- Mean No. of Colonies/10^5 Cells ([1]; BT20, 10 μM): 3298 (2940, 3656)
- Mean No. of Colonies/10^5 Cells ([1]; BT20, 100 μM): 2190 (1632, 2748)
- inhibition at 10 µM ([1]; Homo sapiens, BT-20, BT20, 10 μM): 0%
- inhibition at 100 µM ([1]; Homo sapiens, BT-20, BT20, 100 μM): 18.2%
- Mean No. of Colonies/10^5 Cells ([2]; DAUDI, 0.3 μM): 2030 (1700, 2360)
- Mean No. of Colonies/10^5 Cells ([2]; DAUDI, 1 μM): 2136 (1568, 2704)
- Mean No. of Colonies/10^5 Cells ([2]; DAUDI, 3 μM): 1406 (988, 1824)
- Mean No. of Colonies/10^5 Cells ([2]; DAUDI, 10 μM): 1149 (1054, 1244)
- Mean No. of Colonies/10^5 Cells ([2]; DAUDI, 30 μM): 29 (12, 46)
- EC50 ([2]; Homo sapiens, DAUDI cells, read-out: EC50, inhibition of clonogenic growth): 18.8 µM
- inhibition at 0.3 µM ([2]; Homo sapiens, DAUDI, 0.3 μM): 48.6%
- inhibition at 1 µM ([2]; Homo sapiens, DAUDI, 1 μM): 45.9%
- inhibition at 3 µM ([2]; Homo sapiens, DAUDI, 3 μM): 64.4%
- inhibition at 10 µM ([2]; Homo sapiens, DAUDI, 10 μM): 70.9%
- inhibition at 30 µM ([2]; Homo sapiens, DAUDI, 30 μM): 98%
- Mean No. of Colonies/10^5 Cells [3]: 1 (1,1)
- inhibition at 100 µM ([3]; Homo sapiens): > 99.9%
- Mean No. of Colonies/10^5 Cells ([4]; 30 μM): 838 (600, 1076)
- inhibition at 30 µM ([4]; Homo sapiens): 0%
- inhibition of occurrence of SCC/Florid actinic keratosis ([5]; group C vs group B, 20 weeks): about 23%
- No. of lesions/mouse ([5]; group C, 1 mg/cm^2 topical before each UVB 35 mj/cm^2, 20 weeks, mean ± SEM): 1.6 ± 0.4
- Percentage of mice with Actinic keratosis [5, 7]: 53 Percentage
- Percentage of mice with Keratoacanthomas [5, 7]: 0 Percentage
- Percentage of mice with Papilloma [5, 7]: 7 Percentage
- Percentage of mice with SCC/Florid actinic keratosis [5, 7]: 57 Percentage
- Avg. Vol/lesion [5, 8]: 1.9 ± 0.5
- Skin lesion volume/mouse [5, 8]: 3.2 ± 0.9
- onset of lesions (first lesion observed after) ([5]; weeks of UVB-irradiation, vehicle group around 10 weeks): 14 weeks
- IPGTT, islet function vs controls ([6]; day 70): no significant difference in islet function
- nonfasting blood glucose ([6]; day 70 of treatment): 124.6 ± 10.8 mg/dL
- IPGTT, islet function vs controls ([6]; day 180): not different
- insulin expression in syngeneic grafts vs vehicle ([6]; day 180, immunohistochemistry): comparable
- non-fasting blood glucose level ([6]; day 180 post transplantation): 115.2 ± 9.2 mg/dL
- non-fasting blood glucose level vs vehicle control ([6]; entire period of 180 days): did not differ

From US6469013B2, “Therapeutic compounds” (Parker Hughes Institute, priority 1998, dated 2002)
